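Values below derive from 48-hour exposures of cells grown in 96-well plates, with endpoints linearly interpolated between the two concentrations bracketing the appropriate inhibition level. GI50 is the concentration that inhibits growth by half.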 Active and inactive are the calls of the source. Cut-off read from the data, not from the text of the source: active = GI50 up to about 1.1 µM and inactive = higher.
Experiments:
Assay in all cases: growth of human tumour cells (NCI), 48 h
786-0 = tested on: 786-0
A549 = tested on: A549
ACHN = tested on: ACHN
CAKI-1 = tested on: CAKI-1
COLO 205 = tested on: COLO 205
DLD-1 = tested on: DLD-1
DMS-114 = tested on: DMS-114
DMS-273 = tested on: DMS-273
HCC 2998 = tested on: HCC 2998
HCT-116 = tested on: HCT-116
HCT-15 = tested on: HCT-15
HL-60 = tested on: HL-60
HOP-62 = tested on: HOP-62
HOP-92 = tested on: HOP-92
HT-29 = tested on: HT-29
IGROV-1 = tested on: IGROV-1
K562 = tested on: K562
KM-20L2 = tested on: KM-20L2
KM12 = tested on: KM12
LOX IMVI = tested on: LOX IMVI
LXFL 529 = tested on: LXFL 529
M14 = tested on: M14
M19-MEL = tested on: M19-MEL
MOLT-4 = tested on: MOLT-4
Malme-3M = tested on: Malme-3M
NCI-H226 = tested on: NCI-H226
NCI-H23 = tested on: NCI-H23
NCI-H460 = tested on: NCI-H460
NCI-H522 = tested on: NCI-H522
OVCAR-3 = tested on: OVCAR-3
OVCAR-4 = tested on: OVCAR-4
OVCAR-5 = tested on: OVCAR-5
OVCAR-8 = tested on: OVCAR-8
RPMI-8226 = tested on: RPMI-8226
RXF 393 = tested on: RXF 393
SF-268 = tested on: SF-268
SF-295 = tested on: SF-295
SF-539 = tested on: SF-539
SK-MEL-28 = tested on: SK-MEL-28
SK-MEL-5 = tested on: SK-MEL-5
SK-OV-3 = tested on: SK-OV-3
SN12C = tested on: SN12C
SNB-19 = tested on: SNB-19
SNB-75 = tested on: SNB-75
SNB-78 = tested on: SNB-78
SR = tested on: SR
SW-620 = tested on: SW-620
TK-10 = tested on: TK-10
U-251 = tested on: U-251
UACC-257 = tested on: UACC-257
UACC-62 = tested on: UACC-62
UO-31 = tested on: UO-31
XF498 = tested on: XF498
A498 = tested on: A498
CCRF-CEM = tested on: CCRF-CEM
EKVX = tested on: EKVX
SK-MEL-2 = tested on: SK-MEL-2

SMILES: CC(C)(C)NN=C1C(C)(C)C(=NNC(C)(C)C)C1(C)C
- GI50 (786-0): > 100 µM (inactive)
- GI50 (A549): > 100 µM (inactive)
- GI50 (ACHN): > 100 µM (inactive)
- GI50 (CAKI-1): > 100 µM (inactive)
- GI50 (COLO 205): > 100 µM (inactive)
- GI50 (DLD-1): > 100 µM (inactive)
- GI50 (DMS-114): > 100 µM (inactive)
- GI50 (DMS-273): > 100 µM (inactive)
- GI50 (HCC 2998): > 100 µM (inactive)
- GI50 (HCT-116): > 100 µM (inactive)
- GI50 (HCT-15): > 100 µM
- GI50 (HL-60): > 100 µM (inactive)
- GI50 (HOP-62): > 100 µM (inactive)
- GI50 (HOP-92): > 100 µM (inactive)
- GI50 (HT-29): > 100 µM (inactive)
- GI50 (IGROV-1): > 100 µM (inactive)
- GI50 (K562): > 100 µM (inactive)
- GI50 (KM-20L2): > 100 µM (inactive)
- GI50 (KM12): > 100 µM (inactive)
- GI50 (LOX IMVI): > 100 µM (inactive)
- GI50 (LXFL 529): > 100 µM (inactive)
- GI50 (M14): > 100 µM (inactive)
- GI50 (M19-MEL): > 100 µM (inactive)
- GI50 (MOLT-4): > 100 µM (inactive)
- GI50 (Malme-3M): > 100 µM (inactive)
- GI50 (NCI-H226): > 100 µM (inactive)
- GI50 (NCI-H23): > 100 µM (inactive)
- GI50 (NCI-H460): > 100 µM (inactive)
- GI50 (NCI-H522): > 100 µM (inactive)
- GI50 (OVCAR-3): > 100 µM (inactive)
- GI50 (OVCAR-4): > 100 µM (inactive)
- GI50 (OVCAR-5): > 100 µM (inactive)
- GI50 (OVCAR-8): > 100 µM (inactive)
- GI50 (RPMI-8226): > 100 µM (inactive)
- GI50 (RXF 393): > 100 µM (inactive)
- GI50 (SF-268): > 100 µM (inactive)
- GI50 (SF-295): > 100 µM (inactive)
- GI50 (SF-539): > 100 µM (inactive)
- GI50 (SK-MEL-28): > 100 µM (inactive)
- GI50 (SK-MEL-5): > 100 µM (inactive)
- GI50 (SK-OV-3): > 100 µM (inactive)
- GI50 (SN12C): > 100 µM (inactive)
- GI50 (SNB-19): > 100 µM (inactive)
- GI50 (SNB-75): > 100 µM (inactive)
- GI50 (SNB-78): > 100 µM (inactive)
- GI50 (SR): > 100 µM (inactive)
- GI50 (SW-620): > 100 µM (inactive)
- GI50 (TK-10): > 100 µM (inactive)
- GI50 (U-251): > 100 µM (inactive)
- GI50 (UACC-257): > 100 µM (inactive)
- GI50 (UACC-62): > 100 µM (inactive)
- GI50 (UO-31): > 100 µM (inactive)
- GI50 (XF498): > 100 µM (inactive)

SMILES: COC(=O)n1c(C[P+](c2ccccc2)(c2ccccc2)c2ccccc2)cc2ccccc21
- GI50 (786-0): 2.41 µM (inactive)
- GI50 (A498): 7.26 µM (inactive)
- GI50 (A549): 2.22 µM (inactive)
- GI50 (ACHN): 3.87 µM (inactive)
- GI50 (CAKI-1): 2.06 µM (inactive)
- GI50 (CCRF-CEM): 931 nM (active)
- GI50 (COLO 205): 1.26 µM (inactive)
- GI50 (DLD-1): 1.06 µM (active)
- GI50 (DMS-114): 1.09 µM (active)
- GI50 (DMS-273): 0.697 µM (active)
- GI50 (EKVX): 774 nM (active)
- GI50 (HCC 2998): 1.15 µM (inactive)
- GI50 (HCT-116): 1.11 µM (active)
- GI50 (HCT-15): 13.3 µM
- GI50 (HL-60): 0.869 µM (active)
- GI50 (HOP-62): 1.73 µM (inactive)
- GI50 (HOP-92): 0.0318 µM (active)
- GI50 (HT-29): 1.75 µM (inactive)
- GI50 (IGROV-1): 0.664 µM (active)
- GI50 (K562): 0.438 µM (active)
- GI50 (KM-20L2): 1.94 µM (inactive)
- GI50 (KM12): 1.19 µM (inactive)
- GI50 (LOX IMVI): 1.07 µM (active)
- GI50 (LXFL 529): 0.372 µM (active)
- GI50 (M14): 1.13 µM (inactive)
- GI50 (M19-MEL): 0.452 µM (active)
- GI50 (MOLT-4): 1.64 µM (inactive)
- GI50 (Malme-3M): 3.47 µM (inactive)
- GI50 (NCI-H226): 1.73 µM (inactive)
- GI50 (NCI-H23): 1.86 µM (inactive)
- GI50 (NCI-H460): 1.43 µM (inactive)
- GI50 (NCI-H522): 1 µM (active)
- GI50 (OVCAR-3): 1.01 µM (active)
- GI50 (OVCAR-4): 5.92 µM (inactive)
- GI50 (OVCAR-5): 2.11 µM (inactive)
- GI50 (OVCAR-8): 0.566 µM (active)
- GI50 (RPMI-8226): 0.352 µM (active)
- GI50 (RXF 393): 3.43 µM (inactive)
- GI50 (SF-268): 2.93 µM (inactive)
- GI50 (SF-295): 2.29 µM (inactive)
- GI50 (SF-539): 3.17 µM (inactive)
- GI50 (SK-MEL-28): 4.16 µM (inactive)
- GI50 (SK-MEL-2): 661 nM (active)
- GI50 (SK-MEL-5): 0.414 µM (active)
- GI50 (SK-OV-3): 0.652 µM (active)
- GI50 (SN12C): 2.26 µM (inactive)
- GI50 (SNB-19): 1.31 µM (inactive)
- GI50 (SNB-75): 3.94 µM (inactive)
- GI50 (SNB-78): 3.37 µM (inactive)
- GI50 (SR): 2.67 µM (inactive)
- GI50 (SW-620): 1.85 µM (inactive)
- GI50 (TK-10): 3.34 µM (inactive)
- GI50 (U-251): 2.81 µM (inactive)
- GI50 (UACC-62): 2.77 µM (inactive)
- GI50 (UO-31): 0.604 µM (active)
- GI50 (XF498): 0.746 µM (active)
